Data as given in US10266535B2, “Inhibitor of FLT3 kinase and use thereof” (HEFEI INSTITUTES OF PHYSICAL SCIENCE, CHINESE ACADEMY OF …, priority 2015, dated 2019).

Assays:
[1] = tested on: MV4-11 (expressing FLT3/ITD mutant gene); experiment: Cell proliferation, Cell Titer-Glo, MV4-11; assay type: cell-based; settings: Homo sapiens, MV4-11, 72 h, read-out: MV4-11 IC50 [μM]
In short: (§1)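 Read-out: luminescence from ATP in live cells (CellTiter-Glo), taken as viable cell number. Cell lines were built in-house.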

[2] = tested on: MOLM-14 (expressing FLT3/ITD mutant gene and wild-type FLT3 gene); experiment: Cell proliferation, Cell Titer-Glo, MOLM-14; assay type: cell-based; settings: Homo sapiens, MOLM-14, 72 h, read-out: MOLM-14 IC50 [μM]
In short: as §1

[3] = tested on: TEL-BaF3-FLT3/ITD (stably expressing FLT3/ITD mutant activated kinase); experiment: Cell proliferation, Cell Titer-Glo, TEL-BaF3-FLT3/ITD; assay type: cell-based, mouse; settings: Mus musculus, 72 h, read-out: TEL-BaF3-FLT3/ITD IC50 [μM], incubated for 72 hours
In short: (§2)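 Each BaF3 line carrying its activated kinase was made by the authors' own laboratory; the amount of ATP in living cells was quantified by CellTiter-Glo luminescence to determine surviving cell number.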

[4] = tested on: TEL-FLT3-BaF3 (stably expressing FLT3 kinase); experiment: Cell proliferation, Cell Titer-Glo, TEL-FLT3-BaF3; assay type: cell-based; settings: Mus musculus, 72 h, read-out: TEL-FLT3-BaF3 IC50 [μM]
Experimental: (§3) The above cell lines were constructed by our laboratory.
(§4) The number of viable cells was determined by quantification of ATP in living cells using the Cell Titer-Glo® (Promega, USA) chemiluminescence cell viability assay kit.

[5] = tested on: TEL-BaF3-FLT3-D835Y (stably expressing FLT3 D835Y mutant activated kinase); experiment: Cell proliferation, Cell Titer-Glo, TEL-BaF3-FLT3-D835Y; assay type: cell-based; settings: Mus musculus, 72 h, read-out: TEL-BaF3-FLT3-D835Y IC50 [μM]
In short: as §2

[6] = tested on: BaF3-FLT3-ITD-D835Y (stably expressing FLT3/ITD D835Y mutant activated kinase); experiment: Cell proliferation, Cell Titer-Glo, BaF3-FLT3-ITD-D835Y; assay type: cell-based; settings: Mus musculus, 72 h, read-out: BaF3-FLT3-ITD-D835Y IC50 [μM]
Experimental: as §3, §4

[7] = tested on: BaF3-FLT3-ITD-F691L (stably expressing FLT3/ITD F691L mutant activated kinase); experiment: Cell proliferation, Cell Titer-Glo, BaF3-FLT3-ITD-F691L; assay type: cell-based; settings: Mus musculus, 72 h, read-out: BaF3-FLT3-ITD-F691L IC50 [μM]
In short: as §2

pro-B cell BaF3 = experiment: Cell proliferation, Cell Titer-Glo, BaF3; assay type: cell-based; settings: Mus musculus, incubated for 72 hours
In short: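 Chemiluminescent ATP detection (CellTiter-Glo) gave the number of viable cells, used as the measure of proliferation in these laboratory-made BaF3 lines.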

[8] = tested on: U937 (expressing wild-type FLT3 gene); experiment: Cell proliferation, Cell Titer-Glo, U937; assay type: cell-based, human; settings: Homo sapiens, U-937, 72 h, read-out: U937 IC50 [μM], incubated for 72 hours
In short: as §1

[9] = tested on: TEL-BaF3-BMX (stably expressing BMX kinase); experiment: Cell proliferation, Cell Titer-Glo, TEL-BaF3-BMX; assay type: cell-based; settings: Mus musculus; incubated for 72 hours
In short: as §2

[10] = tested on: TEL-cKIT-BaF3 (stably expressing cKIT kinase); experiment: Cell proliferation, Cell Titer-Glo, TEL-cKIT-BaF3; assay type: cell-based; settings: Mus musculus; incubated for 72 hours
In short: as §2

[11] = tested on: TPR-MET-BaF3 (stably expressing MET kinase); experiment: Cell proliferation, Cell Titer-Glo, TPR-MET-BaF3; assay type: cell-based; settings: Mus musculus; incubated for 72 hours
In short: as §2

[12] = tested on: TEL-BaF3-BLK (stably expressing BLK kinase); experiment: Cell proliferation, Cell Titer-Glo, TEL-BaF3-BLK; assay type: cell-based; settings: Mus musculus; incubated for 72 hours
In short: as §2

[13] = tested on: Signaling pathways of FLT3 in MV4-11 and MOLM-14 cell lines; experiment: Effects on upstream and downstream signaling pathways of FLT3 in cells; assay type: cell-based, human; settings: for C-Myc (degradation; for AC220 phosphorylation) / phosphorylation of STAT5 / phosphorylation of protein kinase FLT3: treated for 4 hours
MOLM-13 cell lines = experiment: Cell apoptosis, Western Blot of PARP and Caspase 3 cleavage, MOLM-13; assay type: cell-based, human; settings: MOLM-13, 0.1 μM
Excerpt: (§5) Western Blot was used to detect the effects of different concentrations of drugs on protein cleavage of DNA repair enzyme, poly ADP-ribose polymerase PARP and cysteinyl aspartate specific proteinase Caspase 3 at different time intervals (FIG. 3).

MV4-11 cell lines = experiment: Cell apoptosis, Western Blot of PARP and Caspase 3 cleavage, MV4-11; assay type: cell-based, human; settings: after 24 hours
Excerpt: as §5

[14] = tested on: MV4-11 cell lines carrying FLT3/ITD mutant gene; experiment: Cell cycle distribution by flow cytometry; assay type: cell-based, human; settings: MV4-11, 0.1 μM, 24 hours
[15] = tested on: MOLM-13 (expressing FLT3/ITD mutant gene and wild-type FLT3 gene); experiment: Cell proliferation, Cell Titer-Glo, MOLM-13; assay type: cell-based; settings: Homo sapiens, MOLM-13, 72 h, read-out: MOLM-13 IC50 [μM]
In short: as §1

[16] = tested on: BaF3-tel-cKit-N882K (stably expressing cKIT N882K mutant activated kinase); experiment: Cell proliferation, Cell Titer-Glo, BaF3-tel-cKit-N882K; assay type: cell-based; settings: Mus musculus; incubated for 72 hours
Experimental: as §3, §4

[17] = tested on: BaF3-tel-cKit-D816V (stably expressing cKIT D816V mutant activated kinase); experiment: Cell proliferation, Cell Titer-Glo, BaF3-tel-cKit-D816V; assay type: cell-based; settings: Mus musculus; incubated for 72 hours
Experimental: as §3, §4

[18] = tested on: BaF3-tel-cKit-T670I (stably expressing cKIT T670I mutant activated kinase); experiment: Cell proliferation, Cell Titer-Glo, BaF3-tel-cKit-T670I; assay type: cell-based; settings: Mus musculus; incubated for 72 hours
Experimental: as §3, §4

[19] = tested on: TEL-BaF3-EGFR (stably expressing EGFR kinase); experiment: Cell proliferation, Cell Titer-Glo, TEL-BaF3-EGFR; assay type: cell-based; settings: Mus musculus; incubated for 72 hours
In short: as §2

[20] = tested on: TEL-JAK1-BaF3 (stably expressing JAK1 kinase); experiment: Cell proliferation, Cell Titer-Glo, TEL-JAK1-BaF3; assay type: cell-based; settings: Mus musculus; incubated for 72 hours
In short: as §2

BTK protein kinase = BTK protein kinase (Homo sapiens (Human), UniProt Q06187); experiment: In vitro inhibition activity (enzymatic activity), ADP-Glo, BTK; assay type: biochemical; settings: ATP 10 μM
Chain of BTK protein kinase (Q06187 whole entry): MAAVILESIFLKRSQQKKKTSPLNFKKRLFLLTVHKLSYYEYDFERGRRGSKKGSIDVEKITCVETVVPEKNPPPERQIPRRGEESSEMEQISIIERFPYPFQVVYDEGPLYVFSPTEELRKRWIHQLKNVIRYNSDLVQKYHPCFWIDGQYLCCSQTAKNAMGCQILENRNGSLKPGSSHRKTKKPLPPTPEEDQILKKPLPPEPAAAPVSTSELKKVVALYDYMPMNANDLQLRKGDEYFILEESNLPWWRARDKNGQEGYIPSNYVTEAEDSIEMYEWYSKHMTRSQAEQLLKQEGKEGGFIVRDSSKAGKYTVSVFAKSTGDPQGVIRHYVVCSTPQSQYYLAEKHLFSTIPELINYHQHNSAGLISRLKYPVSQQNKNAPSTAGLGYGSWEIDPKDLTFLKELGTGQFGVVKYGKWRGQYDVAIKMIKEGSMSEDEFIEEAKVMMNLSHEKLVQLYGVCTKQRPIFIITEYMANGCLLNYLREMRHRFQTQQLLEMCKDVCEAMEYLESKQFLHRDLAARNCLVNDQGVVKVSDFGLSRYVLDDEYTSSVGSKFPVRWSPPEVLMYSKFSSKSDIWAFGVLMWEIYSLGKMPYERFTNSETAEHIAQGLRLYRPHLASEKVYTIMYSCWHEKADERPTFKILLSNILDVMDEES

MOLM-14 cells = experiment: Nude mouse subcutaneous tumor model with MOLM-14 cells; assay type: in vivo; settings: oral gavage, 2 to 3 weeks
Experimental: More than 30 mice (5-week-old) (Balb/c-nu female mice, purchased from Shanghai Snake Experimental Animal Co., Ltd.) were inoculated subcutaneously with MOLM-14 cells in 1×10^7 cells/mouse, the changes in body weight and tumor volume were recorded daily (tumor volume=Tumor length×tumor width^2/2).

Structure (SMILES) | IC50 [1] | IC50 [2] | IC50 [3] | IC50 [6] | IC50 [7] | IC50 (pro-B cell BaF3) | IC50 [8] | IC50 [9] | IC50 [10] | IC50 [11] | IC50 [12] | C-Myc (degradation; for AC220 phosphorylation) [13] | phosphorylation of STAT5 [13] | phosphorylation of protein kinase FLT3 [13] | number of cells captured in G0-G1 phase [14] | further results
CC(C)C[C@@H](N)C(=O)N[C@H]1CC[C@@H](n2nc(-c3ccc(Oc4ccccc4)cc3)c3c(N)ncnc32)CC1.Cl (stereo in doubt) [Compound 84, (R)-2-amino-N-(4-(4-amino-3-(4-phenoxyphenyl)-1H-pyrazolo[3,4-d]pyrimidin-1-yl)cis-1,4-cyclohexyl)-4-methylpentanamide hydrochloride] | 0.01 µM | 0.002 µM | < 0.0003 µM | 0.28 µM | 0.43 µM | 750 nM | 3.3 µM | 63 nM | 6100 nM | 2900 nM | 3 nM | significant effects on the degradation | very strong inhibitory effects | strongly inhibited | 89.92% | IC50 [4]: 0.013 µM; IC50 [5]: 0.002 µM; efficacy compared with Control Compound AC220 ([13]; AC220 at 0.1 μM): better efficacy; cleavage of Caspase 3 (MOLM-13 cell lines; after 24 hours): very significant cleavage; cleavage of poly ADP-ribose polymerase PARP (MOLM-13 cell lines; after 24 hours): very significant cleavage; cleavage of Caspase 3 (MV4-11 cell lines; MV 4-11, 0.03 μM): cleavage; cleavage of poly ADP-ribose polymerase PARP (MV4-11 cell lines; MV 4-11, 0.03 μM): relatively significant cleavage
CN(C)CC(=O)N1CCC[C@@H](n2nc(-c3ccc(Oc4ccccc4)cc3)c3c(N)ncnc32)C1 [Compound 22, (R)-1-(3-(4-amino-(4-phenoxyphenyl)-1H-pyrazolo[3,4-d]pyrimidin-1-yl)piperidin-1-yl)-2-(dimethylamino)ethanone] | 0.022 µM | 0.042 µM | 0.011 µM | 0.17 µM | 0.22 µM | 4900 nM | 9.7 µM | 280 nM | 1900 nM | 2200 nM | 940 nM | significant effects on the degradation | very strong inhibitory effects | strongly inhibited | 95.78% | IC50 [15]: 0.021 µM; IC50 [16]: 1200 nM; IC50 [17]: 1000 nM; IC50 [18]: 3600 nM; IC50 [19]: 1800 nM; IC50 [20]: 3800 nM; IC50 (BTK protein kinase): 190 nM; cleavage of Caspase 3 (MOLM-13 cell lines; after 12 hours): very significant cleavage; cleavage of poly ADP-ribose polymerase PARP (MOLM-13 cell lines; after 12 hours): very significant cleavage; cleavage of Caspase 3 (MV4-11 cell lines; MV 4-11, 0.1 μM): very significant cleavage; cleavage of poly ADP-ribose polymerase PARP (MV4-11 cell lines; MV 4-11, 0.1 μM): significant cleavage; tumor growth of the mice (MOLM-14 cells; 12.5-50 mg/kg): significantly inhibited; tumor volume growth of the mice (MOLM-14 cells; dose not specified): significantly slowed down
